These results are taken from patent US9776965B2, “Pyrrolidin-2-one and piperidin-2-one derivatives as 11-beta hydroxysteroid dehydrogenase inhibitors” (Janssen Pharmaceutica N.V., priority 2004, dated 2017).

For assay [1], the target named is 11b-HSD1 (Homo sapiens, UniProt P28845). The experiment in a line: Enzymatic assay, 11b-HSD1 dependent conversion of cortisone into cortisol (reductase activity). The class given is biochemical. The following applies: recombinant protein, 2 μM cortisone, 45 min at 37 C; read-out: [C1] HSD1-prot Reduct Score. The procedure:
The effects of compounds on 11b-HSD1 dependent conversion of cortisone into cortisol (reductase activity) was studied in a reaction mixture containing 30 mM Tris-HCl buffer pH 7.2, 180 μM NADPH, 1 mM EDTA, 2 μM cortisone, 1 μl drug and/or solvent and 11 μg recombinant protein in a final volume of 100 μl.
All incubations were performed for 45 min at 37 C in a water bath. The reaction was stopped by adding 100 μl acetonitrile containing 20 μg corticosterone as internal standard. After centrifugation, the product formation was analysed in the supernatant by HPLC on a Hypersyl BDS-C18 column using 0.05 mM ammonium acetate/methanol (50/50) as solvent. In all of the aforementioned assays, the drugs to be tested were taken from a stock solution and tested at a final concentration ranging from […] to 3.10^−9M. From the thus obtained dose response curves, the pIC50 value was calculated and scored as follows; Score 1=pIC50 value<5, Score 2=pIC50 value in the range of 5 to 6, Score 3=pIC50 value>6. (in this table NT stands for Not Tested).

Assay [2] has as its target T1, 11b-HSD1 (Mus musculus, UniProt P50172).
T1 construct: Fibroblasts were differentiated into adipocytes; endogenous in cells; host or cells: differentiated 3T3-L1 cells (ATCC-CL-173)
The experiment in a line: Cellular assay, 11b-HSD1 activity in differentiated 3T3-L1 cells. The note with it: 4 hour pre-incubation, read-out: [C2] HSD1 cellular 3T3-L1 Score. In kind it is cell-based. The procedure: The effects on 11b-HSD1 activity was measured in differentiated 3T3-L1 cells and rat hepatocytes.
Mouse fibroblast 3T3-L1 cells (ATCC-CL-173) were seeded at a density of 16500 cells/ml in 12 well plates and grown for 7 days in DMEM medium (supplemented with 10% heat inactivated foetal calf serum, 2 mM glutamine and 25 mg gentamycin) at 37 C in a humidified 5% CO2 atmosphere. Medium was refreshed twice a week. Fibroblasts were differentiated into adipocytes at 37 C in a 5% CO2 humidified atmosphere in growth medium containing 2 μg/ml insulin, 55 μg/ml IBMX and 39.2 μg/ml dexamethasone.
Following a 4 hour pre-incubation with test compound, 0.5 μCi ^3H-cortisone or dehydrocorticosterone, was added to the cultures. One hour later, the medium was extracted on Extrelut^3-columns with 15 ml diethyl ether and the extract was analysed by HPLC as described above.
As for the enzymatic assays, the compounds to be tested were taken from a stock solution and tested at a final concentration ranging from […] to 3.10^−9M. From the thus obtained dose response curves, the pIC50 value was calculated and scored as follows; Score 1=pIC50 value<5, Score 2=pIC50 value in the range of 5 to 6, Score 3=pIC50 value>6. Some of the thus obtained results are summarized in the table below (in this table NT stands for Not Tested).

Structures are written as SMILES.

T1 sequence (P50172 whole entry): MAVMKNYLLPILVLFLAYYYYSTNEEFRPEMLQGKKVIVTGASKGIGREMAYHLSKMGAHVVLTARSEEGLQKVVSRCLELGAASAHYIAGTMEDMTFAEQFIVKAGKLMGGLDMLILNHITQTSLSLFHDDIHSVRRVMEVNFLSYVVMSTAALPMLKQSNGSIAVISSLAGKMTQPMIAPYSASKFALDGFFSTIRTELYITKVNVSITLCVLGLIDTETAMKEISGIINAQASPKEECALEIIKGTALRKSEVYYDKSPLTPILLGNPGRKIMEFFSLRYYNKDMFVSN
Chain of 11b-HSD1 (Homo sapiens, UniProt P28845) (P28845 whole entry): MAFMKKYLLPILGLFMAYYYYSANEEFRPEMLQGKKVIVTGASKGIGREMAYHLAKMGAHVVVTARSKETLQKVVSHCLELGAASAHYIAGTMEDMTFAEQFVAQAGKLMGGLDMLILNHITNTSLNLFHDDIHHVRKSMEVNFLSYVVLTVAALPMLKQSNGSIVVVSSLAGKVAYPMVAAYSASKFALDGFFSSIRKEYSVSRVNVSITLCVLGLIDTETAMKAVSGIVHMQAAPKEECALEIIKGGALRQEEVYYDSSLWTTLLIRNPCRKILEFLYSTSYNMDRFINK

Regarding `COc1ccc(CC[C@H]2CCN([C@@H](C)c3ccccc3)C2=O)cc1OC` [Compound 126], the IC50 in assay [1] and in assay [2] was over 10 µM in each case.

For the compound `C[C@H](c1ccccc1)N1CC[C@H](Cc2cccc(Cl)c2)C1=O` [Compound 47], the figures for the IC50 in assay [1] and in assay [2] were over 10 µM and 1 to 10 µM, respectively.

For the compound `C[C@@H](c1ccccc1)N1CC[C@@H](Cc2cccc(Cl)c2)C1=O` [Compound 18], the IC50 in assay [1] and in assay [2] was 1 to 10 µM each time.

Take `C[C@@H](c1ccccc1)N1CC[C@H](CCc2ccc(N(C)C)cc2)C1=O` [Compound 131]: the IC50 in assay [1] was over 10 µM; in assay [2], 1 to 10 µM.

As to `N#Cc1ccccc1CC1CCN(Cc2ccccc2)C1=O` (centres unmarked) [Compound 54], the values for the IC50 in assay [1] and in assay [2] were over 10 µM and 1 to 10 µM, respectively.

Turning to `COc1ccccc1C[C@H]1CCN([C@H](C)c2ccccc2)C1=O` [Compound 39], the values for the IC50 in assay [1] and in assay [2] were over 10 µM and 1 to 10 µM, respectively.

Regarding `COc1ccccc1CC1CCN(CCc2ccccc2)C1=O` (centres unmarked) [Compound 33], the IC50 in assay [1] is over 10 µM; in assay [2], under 1 µM.

Regarding `C[C@H](c1ccccc1)N1CC[C@H](Cc2ccccc2C#N)C1=O` [Compound 64], the results for the IC50 in assay [1] and in assay [2] were over 10 µM and 1 to 10 µM, respectively.

On to `C[C@@H](C[C@@H]1CCN([C@@H](C)c2ccccc2)C1=O)c1ccccc1` [Compound 134], for which the IC50 in assay [1] and in assay [2] was under 1 µM throughout.

As to `Cc1ccc(CCN2CCC(Cc3c(Cl)cccc3Cl)C2=O)cc1` (centres unmarked) [Compound 93], the IC50 in assay [1] and in assay [2] was over 10 µM in each case.

With `O=C1[C@H](Cc2c(Cl)cccc2Cl)CCN1[C@@H](CO)c1ccccc1` [Compound 107], the IC50 was 1 to 10 µM in assay [1] and over 10 µM in assay [2].

Consider `O=C1[C@H](Cc2c(Cl)cccc2Cl)CCN1[C@H](CO)c1ccccc1` [Compound 105], for which the IC50 in assay [1] and in assay [2] was under 1 µM throughout.

Regarding `CC[C@@H](C[C@@H]1CCN([C@@H](C)c2ccccc2)C1=O)c1ccccc1` [Compound 139], the IC50 in assay [1] and in assay [2] was under 1 µM each time.

With `C[C@H](c1ccccc1)N1CC[C@H](Cc2ccccc2)C1=O` [Compound 36], the IC50 in assay [1] is over 10 µM; in assay [2], 1 to 10 µM.

Consider `CC[C@H](C[C@@H]1CCN([C@@H](C)c2ccccc2)C1=O)c1ccccc1` [Compound 138], for which the IC50 in assay [1] and in assay [2] was 1 to 10 µM in each case.

Take `Cc1ccc([C@@H](O)[C@H]2CCN([C@@H](C)c3ccccc3)C2=O)c(C)c1` [Compound 90]: the IC50 in assay [1] is over 10 µM; in assay [2], 1 to 10 µM.

For `CC[C@]1(Cc2ccccc2C)CCN([C@H](C)c2ccccc2)C1=O` [Compound 145], the IC50 in assay [1] and in assay [2] was over 10 µM each time.

Turning to `C[C@@H](c1ccccc1)N1CC[C@@H](Cc2cc3c(cc2Cl)OCO3)C1=O` [Compound 155], the IC50 in assay [1] and in assay [2] was under 1 µM each time.

On to `O=C1C(Cc2c(Cl)cccc2Cl)CCN1CCCc1ccccc1` (centres unmarked) [Compound 114], for which the IC50 in assay [1] was over 10 µM; in assay [2], under 1 µM.

On to `Cc1ccc([C@H](O)[C@H]2CCN([C@@H](C)c3ccccc3)C2=O)c(C)c1` [Compound 91], for which the IC50 was 1 to 10 µM in assay [1] and under 1 µM in assay [2].

For the compound `COC[C@@H](c1ccccc1)N1CC[C@@H](Cc2c(Cl)cccc2Cl)C1=O` [Compound 101], the IC50 in assay [1] and in assay [2] was over 10 µM throughout.

For the compound `COc1ccccc1CC1CCN(Cc2ccccc2)C1=O` (centres unmarked) [Compound 60], the IC50 was over 10 µM in assay [1] and 1 to 10 µM in assay [2].

As for `O=C1C(Cc2cccc(Cl)c2)CCN1Cc1ccccc1` (centres unmarked) [Compound 51], the IC50 was over 10 µM in assay [1] and 1 to 10 µM in assay [2].

With `C[C@@H](c1ccccc1)[C@H]1CCN([C@@H](C)c2ccccc2)C1=O` [Compound 160], the IC50 was under 1 µM in assay [1] and over 10 µM in assay [2].

Regarding `CC[C@@H](c1ccccc1)N1CC[C@@H](Cc2c(Cl)cccc2Cl)C1=O` [Compound 95], the IC50 in assay [1] was under 1 µM; in assay [2], 1 to 10 µM.
